Reference: US20250312440A1, “CHEMICAL SCREEN OF MODULATORS FOR VACCINE ADJUVANTS” (THE UNIVERSITY OF CHICAGO, priority 2022, published 2025)

Assays:
human THP-1 monocytes = assay: Cytokine level screening in THP-1 cells (AlphaLISA/AlphaPlex, modulator + agonist); type: cell-based
Procedure: THP-1 cells were seeded at 50,000 cells per well in 45 μL of biotin-free RPMI+5% HI-FBS in clear 384 well plates. Following 24h incubation, 50 nL of 10 mM modulator libraries were added by Janus G3 via pintool to experimental wells (cols 3-22) for a final concentration of 10 μM. After 1 hour, 5 μL of agonist was added via a MultiDrop Combi liquid handler (col 3-23). The following day, 5 μL of supernatant was transferred to white low volume ProxiPlates. 10 μL of a prepared acceptor bead (10 μg/mL final conc), biotinylated antibody (1 nM final conc) mixture was added via liquid handler to the cell supernatant. After 1 hr incubation at RT, 5 μL of donor beads (40 μg/mL final conc) were added in the dark. After an additional 1 hr incubation, plates were read on a plate reader with AlphaPlex filters for europium (615 nm) and terbium (545 nm) emission. A separate plate was run each day containing a standard curve of known analyte for interpolation purposes.
Cytokines and chemokines are a broad category of secreted proteins important for adjuvants in regulating adaptive immunity (23). However, excessive production of cytokines by adjuvants can result in direct tissue damage and are correlated with vaccine tolerability (24, 25). To validate the findings of the primary screening results and to explore the impact on downstream immune outcomes, the inventors measured levels of six cytokines and chemokines involved in inflammation and adaptive responses (IL-12p40, IP-10, IL-1b, CCL4, TNF-α, and IFN-b, Table 4). The inventors measured cytokine expression through AlphaLISA, an assay well-suited to high throughput due to its large dynamic range, in situ measurement, and broad range of cytokines. It has been previously used to investigate small molecule biological inhibitors (26-28).
Cell supernatants were collected and cytokines were measured in three duplex measurements (FIG. 11A). Similarly, the inventors optimized standard curve ranges, crosstalk correction factors, incubation times and other factors of the secondary screen (FIGS. 11B-11D). As in the inventors' primary screen, modulators enhance or inhibit cytokine production among all six cytokines and for each agonist independently (FIGS. 4A-4G, FIG. 11E). The distributions within cytokines vary based on the dynamic range and Z-factor obtained for each cytokine and agonist studied (Table 5). High throughput screening utilizes Z-factors as a proxy for statistical reliability of an assay, due to the dynamic range of the positive controls and the inherent cytokines secreted for each agonist, a Z-factor score greater than zero was not obtained for certain agonists/[…] combinations. Since each agonist produced differing levels of cytokine that were sometimes at the limits of standard curve, amending this assay to a high throughout nature was challenging. […] Since the inventors measured fold-change and reduce dimensionality further in analysis, this approach was adequate to compare compounds within the inventors' dataset for down-selection.
After considering categorical and ranked scoring systems, the inventors decided the best representation of modulator performance would need to preserve cytokine changes but do so by normalizing for each cytokine's and agonist's dynamic range (37). Because of the differences in dynamic range of all the inventors' six cytokines, the inventors sought to normalize the data to ensure no distribution would bias the inventors' results. Thus, the inventors transformed each cytokine's distributions to a range from −1 to 1 (FIG. 5A). Unlike the previous screen, the inventors considered increases and decreases in cytokine responses separately when selecting molecules for vaccination studies. In the vaccine score, a promising candidate would need to produce minimal pro-inflammatory cytokines while increasing IFN-b and chemokine production (24, 25). Additionally, the inventors might prioritize the importance of one cytokine's modulation over another. […]

IL-6 and TNF-α = settings: with CPG adjuvant; cited from earlier work
TNF-α = assay: Plasma cytokine analysis 1 hr after OVA vaccination with agonist + modulator; type: in vivo, mice; settings: 1 hr after vaccination, CpG 50 μg + modulator 1.5 μmol
Procedure: All animal procedures were performed under a protocol approved by the University of Chicago Institutional Animal Care and Use Committee (IACUC). 6-to-8-week-old C57/B6 female mice were purchased from the Jackson laboratory. All vaccinations were administered intramuscularly in the hind leg. Blood was collected from the submandibular vein at time points indicated.
Mice were lightly anesthetized with isoflurane and injected intramuscularly in the hind leg with an injection volume of 50 μL containing antigen, adjuvant, and a DMSO/AddaVax combination. Antigen dose was as follows: OVA (100 μg)). Agonists doses were as follows: Flagellin, 10 μg; R848, 50 μg; CpG, 50 μg. Modulators were added at 1.5 μmol.
Blood was collected from mice at specified time points in 0.2 mL of heparin-coated collection tubes (VWR Scientific). […] Plasma was analyzed using Bio-Legend's LegendPlex™ Mouse Inflammation Cytokine Panel (13-Plex) according to the manufacturer's protocol. Samples were analyzed using an ACEA NovoCyte Flow Cytometer. Data were analyzed using LEGENDplex™ Data Analysis Software Suite and GraphPad Prism.
The inventors used the vaccine score to select modulators to test in a murine in vivo model. […] The inventors monitored inflammatory cytokine levels one hour following initial injections and monitored antigen specific antibody levels at the indicated timepoints post-boost (FIG. 6A). […]

[1] = THP-1, 10 μM modulator, across agonists
[2] = THP-1, 10 μM modulator, across receptors studied

Cc1ccc(NC(=O)c2ccc(CN3CC[C@H](N(C)C)C3)c(C(F)(F)F)c2)cc1Nc1nccc(-c2cncnc2)n1 [Bafetinib]
difference in enhancement of IP-10 and IFN-b between agonists (human THP-1 monocytes; Pam3, Pam2 vs cGAMP): ~2 orders of magnitude

CS[C@@]1(C(=O)Nc2ccc3[nH]nc(-c4ccc(OC(C)C)nc4)c3c2)CCN(CC(=O)N2CC=C(c3ccc(-c4ncn(C)n4)cc3)CC2)C1 [MK-8353]
IFN-b production, modulator+agonist vs agonist alone (human THP-1 monocytes; [1]): ablates
IL-12 production, modulator+agonist vs agonist alone (human THP-1 monocytes; [1]): ablates
IP-10 production, modulator+agonist vs agonist alone (human THP-1 monocytes; [1]): ablates
IL-1b enhancement (human THP-1 monocytes; [2]): up to 100 fold
TNF-α enhancement (human THP-1 monocytes; [2]): up to 100 fold

CN(C)c1ccc2c(c1)Sc1cc(N(C)C)ccc1N2.CS(=O)(=O)O.CS(=O)(=O)O [TRx0237(LMTX) mesylate]
IFN-b production, modulator+agonist vs agonist alone (human THP-1 monocytes; [1]): enhance IFN-b secretion across all agonists studied
TNF-α enhancement using cGAMP (human THP-1 monocytes; THP-1, 10 μM modulator, cGAMP): up to 36 fold

COc1cc(CNC(=O)CCCC/C=C/C(C)C)ccc1O [capsaicin]
pro-inflammatory systemic IL-6 and TNF-α levels (IL-6 and TNF-α): reduce

CN1CCN(C2CCN(C(=O)Nc3cc(Oc4ccc(NC(=O)C5(C(=O)Nc6ccc(F)cc6)CC5)c(F)c4)ccn3)CC2)CC1 [compound 2, Golvatinib]
systemic TNF-α for CpG (TNF-α): ~0

O=c1cc(-c2cccc3c2Sc2ccccc2S3)oc(N2CCOCC2)c1 [compound 3]
systemic TNF-α for CpG (TNF-α): ~0

C=CCc1ccc(O)c(-c2ccc(O)c(CC=C)c2)c1 [honokiol]
pro-inflammatory systemic IL-6 and TNF-α levels (IL-6 and TNF-α): reduce
